# Experimental data reported in the Deep4Chem optical property database.
# Several values for one entry are separate records, joined by “and”; a condition that tells them apart may be missing. Equal values may be shown once.
# Experiment: solvent given as SMILES
# [1] = in c1ccc2c(c1)c1ccccc1n2-c1ccc(-c2ccc(-n3c4ccccc4c4ccccc43)cc2)cc1
structure (smiles),measurement,setting,value
CCN(CC)c1ccc2c(-c3ccc(S(=O)(=O)[O-])cc3S(=O)(=O)[O-])c3ccc(=[N+](CC)CC)cc-3oc2c1,fluorescence lifetime,in CC#N,2.46 ns
same,fluorescence lifetime,in CCO,2.96 ns
same,fluorescence lifetime,in CN(C)C=O,2.84 ns
same,fluorescence lifetime,in O,1.49 ns
O=C(c1ccc(N2c3ccccc3Oc3ccccc32)cc1)c1ccc(N2c3ccccc3Oc3ccccc32)cc1,fluorescence lifetime,in c1cc(-n2c3ccccc3c3ccccc32)cc(-n2c3ccccc3c3ccccc32)c1,23 ns
N#Cc1ccc(C#Cc2ccc(C#Cc3ccccc3C#N)cc2C#N)cc1,fluorescence lifetime,in ClC(Cl)Cl,1.83 ns
c1cc2c3c(c1)ccc1[n+]3[B-]3(Oc4cccc5ccc6[n+](c45)[B-](O2)(O3)n2c-6cc3c4ccccc4c4ccccc4c32)n2c-1cc1c3ccccc3c3ccccc3c12,fluorescence lifetime,in ClCCl,3.65 ns
Cc1c(C(=O)c2ccccc2)c2ccc3cccc4c5cccc6ccc1c(c65)c2c34,fluorescence lifetime,in ClCCl,2.37 ns
CC(C)c1cccc(C(C)C)c1N1C(=O)c2cccc3c(Oc4ccc(C(C)(C)c5ccccc5)cc4)ccc(c23)C1=O,fluorescence lifetime,in ClCCl,1.2 ns
Fc1c(F)c(-n2c3ccccc3c3ccccc32)c(F)c(F)c1-c1nnc(-c2ccccc2)o1,fluorescence lifetime,in Cc1ccccc1,6.7 ns
COc1ccc(-c2c3ccccc3c(C#Cc3ccccc3)c3ccccc23)cc1,fluorescence lifetime,in ClCCl,2.8 ns
Cc1ccc(-n2cccc2)cc1,fluorescence lifetime,in CC#N,5.5 ns
same,fluorescence lifetime,in CCCCCC,4 ns
CCC1(CC)c2cc(B(c3c(C)cc(C)cc3C)c3c(C)cc(C)cc3C)ccc2-c2ccc(N(c3ccccc3)c3ccccc3)cc21,fluorescence lifetime,in C1CCOC1,2.5 ns
same,fluorescence lifetime,in CC#N,3.5 ns
same,fluorescence lifetime,in CC(C)=O,2.9 ns
same,fluorescence lifetime,in CCCCCC,1.6 ns
same,fluorescence lifetime,in CN(C)C=O,3.5 ns
same,fluorescence lifetime,in Cc1ccccc1,1.8 ns
same,fluorescence lifetime,in ClC(Cl)Cl,2.2 ns
CCCCN1C(=O)c2cc(Br)c3c4c(Br)c(Br)c5c6c(cc(Br)c(c7c(Br)c(Br)c(c2c37)C1=O)c64)C(=O)N(CCCC)C5=O,fluorescence lifetime,in ClC(Cl)Cl,1.1 ns
[NH3+]C1(c2ccc3cc(O)ccc3c2)C2CC3CC(C2)CC1C3 (stereo not given),fluorescence lifetime,in CC#N,10.3 ns
c1ccc2ccccc2c1,fluorescence lifetime,in C1CCCCC1,168 ns and 96 ns
N#Cc1ccc(/C2=C3N=C(C(c4ccccc4)=C/3c3ccccc3)/C(c3ccc(C#N)cc3)=c3\[nH]/c(c(-c4ccccc4)c3-c3ccccc3)=C(/c3ccc(C#N)cc3)C3=N/C(=C(/c4ccc(C#N)cc4)c4[nH]c2c(-c2ccccc2)c4-c2ccccc2)C(c2ccccc2)=C3c2ccccc2)cc1,fluorescence lifetime,in ClCCl,0.416 ns
O=Cc1ccc(C#CC(C#Cc2ccc(C=O)s2)=Cc2ccc(C=C(C#Cc3ccc(C=O)s3)C#Cc3ccc(C=O)s3)cc2)s1,fluorescence lifetime,in ClC(Cl)Cl,0.8 ns
N#Cc1ccc(-n2c(-c3ccc(-c4ccc(N(c5ccccc5)c5ccccc5)cc4)s3)nc3c4ccccc4c4ccccc4c32)c2ccccc12,fluorescence lifetime,in ClCCl,5.4 ns
Cc1cc(C)c2cc3cc(C)ncc3cc2c1,fluorescence lifetime,in CCO,18 ns
CN(C)c1ccc2nc(-c3ccc(/C=N/Nc4ccccc4)cc3)sc2c1,fluorescence lifetime,in C1CCCCC1,2 ns
CC(C)(C)c1ccc2c(c1)c1cc(C(C)(C)C)ccc1n2-c1ccc(-c2ccc3c(c2)C(=O)c2ccc(-c4ccc(-n5c6ccc(C(C)(C)C)cc6c6cc(C(C)(C)C)ccc65)cc4)cc2C3=O)cc1,fluorescence lifetime,in Cc1ccccc1,12.6 ns
same,fluorescence lifetime,[1],33 ns
COc1ccc(N(c2ccc(OC)cc2)c2ccc3ccc4c(B(c5c(C)cc(C)cc5C)c5c(C)cc(C)cc5C)ccc5ccc2c3c54)cc1,fluorescence lifetime,in C1CCOC1,3.2 ns
same,fluorescence lifetime,in CC(C)=O,0.7 ns
same,fluorescence lifetime,in CCCCCC,6.2 ns
same,fluorescence lifetime,in Cc1ccccc1,8.2 ns
same,fluorescence lifetime,in ClC(Cl)Cl,8.5 ns
same,fluorescence lifetime,in ClCCl,3.9 ns
Cn1c2ccc(S(=O)(=O)Cl)cc2c(=O)c2cc(S(=O)(=O)Cl)ccc21,fluorescence lifetime,in CS(C)=O,10.6 ns
N#Cc1cc(C#Cc2c(F)c(F)nc(F)c2F)c(C#Cc2c(F)c(F)nc(F)c2F)cc1C#N,fluorescence lifetime,in CC#N,3.92 ns
CN(C)c1ccc2nc(-c3ccc(C=O)cc3)sc2c1,fluorescence lifetime,in C1CCCCC1,2.5 ns
COCCOCCOCCOCC(COCCOCCOCCOC)Oc1cc(/C=C/c2ccc(/C=C(\C#N)c3ccncc3)cc2)c(OC(COCCOCCOCCOC)COCCOCCOCCOC)cc1/C=C/c1ccc(/C=C(\C#N)c2ccncc2)cc1,fluorescence lifetime,in ClCCl,1.7 ns
COC(=O)c1noc(-c2ccccc2)c1Br,fluorescence lifetime,in C1CCCCC1,0.49 ns
CCCCCCOc1cc(/C=C/c2cc(OCCCCCC)c(/C=C/c3cc(OCCCCCC)c(C=O)cc3OCCCCCC)cc2OCCCCCC)c(OCCCCCC)cc1C=O,fluorescence lifetime,in ClCCl,1.77 ns
O=C1c2ccc3c4c(NC5CCCCC5)cc5c6c(ccc(c7c(NC8CCCCC8)cc(c2c37)C(=O)N1C1CCCCC1)c64)C(=O)N(C1CCCCC1)C5=O,fluorescence lifetime,in ClC(Cl)Cl,1.4 ns
CN1CCCc2cc(C3=Cc4cccc[n+]4[B-](F)(F)O3)ccc21,fluorescence lifetime,in ClC(Cl)Cl,3 ns
Cc1nc2c(ccc3ccccc32)oc1=O,fluorescence lifetime,in c1ccccc1,1.5 ns
COc1cc(C#Cc2ccccc2)c(C#Cc2ccccc2)cc1OC,fluorescence lifetime,in CC#N,2.1 ns
c1ccc(-c2cc3cc4cccc5c(-c6ccccc6)cc6cc7cccc2c7c3c6c45)cc1,fluorescence lifetime,in ClCCl,4.21 ns
[C-]#[N+]c1ccc(-c2ccc(N)cc2)cc1,fluorescence lifetime,in CC#N,2 ns
same,fluorescence lifetime,in CCOC(C)=O,1.7 ns
CCCCCCCCCCCCN1C(=O)c2c(c3ccc4cc(-c5ccc(C(F)(F)F)cc5)c(OC)cc4c3c3c2ccc2cc(-c4ccc(C(F)(F)F)cc4)c(OC)cc23)C1=O,fluorescence lifetime,in ClCCl,6.39 ns
c1ccc(N2c3ccccc3Sc3cc(-c4cccc5nc6ccccc6cc45)ccc32)cc1,fluorescence lifetime,in CC#N,7.58 ns
same,fluorescence lifetime,in CCCCCC,2.05 ns
same,fluorescence lifetime,in CCOCC,3.96 ns
same,fluorescence lifetime,in ClCCl,3.32 ns
O=C1c2ccccc2C2=Nc3cccc4cccc(c34)N12,fluorescence lifetime,in ClCCl,0.86 ns
Nc1ccc2c(c1)-c1ccccc1C2=O,fluorescence lifetime,in CC#N,5.9 ns
same,fluorescence lifetime,in c1ccccc1,11 ns
CCCCCCN1C(=O)c2cccc3c(-c4ccc(OC)s4)ccc(c23)C1=O,fluorescence lifetime,in ClC(Cl)Cl,3.88 ns
CC1=CC2=Nc3nc(C)[n+](C)cc3CN2C=C1,fluorescence lifetime,in CC#N,5.45 ns
same,fluorescence lifetime,in CCO,5.31 ns
same,fluorescence lifetime,in O,5.23 ns
c1ccc2c(c1)c1ccccc1n2-c1ccc2cc(-c3ccc(-c4ccc(-c5cc6ccc(-n7c8ccccc8c8ccccc87)cc6o5)cc4)cc3)oc2c1,fluorescence lifetime,in Cc1ccccc1,0.97 ns
same,fluorescence lifetime,[1],1.5 ns
N#Cc1cc2ccc(cc2)c2cccc3cccc(c4ccc(cc4)cc(C#N)c4ccc(cc4)c4cccc5cccc(c6ccc1cc6)c54)c32,fluorescence lifetime,in Cc1ccccc1,20.6 ns
O=C(O)c1ccc(-c2nc(-c3ccccc3)c3ccccn23)cc1,fluorescence lifetime,in CC#N,1.5 ns
CCN(CC)c1ccc2c(-c3ccccc3C(=O)O)c3c([o+]c2c1)/C(=C/c1ccc(N(C)C)cc1)CCC3,fluorescence lifetime,in ClCCl,0.25 ns
COc1ccc(C2=C(c3ccc(-c4ccccc4)cc3)C(c3ccccc3)=[N+]3C2=Nc2c(-c4ccc(OC)cc4)c(-c4ccc(-c5ccccc5)cc4)c(-c4ccccc4)n2[B-]3(F)F)cc1,fluorescence lifetime,in Cc1ccccc1,0.14 ns
CN(C)c1ccc(/C=C/c2nc3c4ccccc4c4ccccc4c3o2)cc1,fluorescence lifetime,in CC#N,2.13 ns
c1ccc(-c2nc(-c3ccccc3)nc(-c3ccc(-n4c5ccccc5c5cc6c(cc54)C4(c5ccccc5-c5ccccc54)c4ccccc4-6)cc3)n2)cc1,fluorescence lifetime,in O=P(c1ccccc1)(c1ccccc1)c1ccccc1Oc1ccccc1P(=O)(c1ccccc1)c1ccccc1,3.9 ns
F[B-]1(F)OC(C#Cc2ccccc2)=C2CCc3ccccc3C2=[O+]1,fluorescence lifetime,in ClCCl,2.79 ns
CN(C)/C=N\c1ccc2c3c(cccc13)C(=O)c1ccccc1-2,fluorescence lifetime,in ClC(Cl)Cl,7.96 ns
c1cc2c3c(c1)OCCCCCCCCOc1cccc(c1-c1c4ccccc4c-3c3ccccc13)OCCCCCCCCO2,fluorescence lifetime,in C1CCCCC1,8.01 ns
c1ccc(-c2oc(-c3ccccc3)c3ccccc23)cc1,fluorescence lifetime,in CCO,4.72 ns
same,fluorescence lifetime,in CN(C)C=O,5.08 ns
same,fluorescence lifetime,in CS(C)=O,5.3 ns
COc1ccc(C2=CC(c3ccc4cc(N(C)C)ccc4c3)=[O+][B-](F)(F)O2)cc1,fluorescence lifetime,in C1CCOC1,2.68 ns
same,fluorescence lifetime,in CC#N,0.42 ns
same,fluorescence lifetime,in CC(C)=O,0.72 ns
same,fluorescence lifetime,in CS(C)=O,0.54 ns
same,fluorescence lifetime,in Cc1ccccc1,2.96 ns
same,fluorescence lifetime,in ClC(Cl)Cl,3.54 ns
same,fluorescence lifetime,in ClCCl,2.71 ns
COc1ccc(/C=C/C2=CC(/C=C/c3ccc(OC)c4ccccc34)=[O+][B-](F)(F)O2)c2ccccc12,fluorescence lifetime,in CC#N,0.65 ns
same,fluorescence lifetime,in CC(C)=O,1.03 ns
same,fluorescence lifetime,in CCOC(C)=O,1.51 ns
same,fluorescence lifetime,in CCOCC,1.34 ns
same,fluorescence lifetime,in ClC(Cl)(Cl)Cl,1.18 ns
same,fluorescence lifetime,in ClCCl,1.96 ns
F[B-]1(F)OC(c2ccc(N3CCCCC3)cc2)=Cc2cccc[n+]21,fluorescence lifetime,in ClC(Cl)Cl,2.68 ns
Oc1ccccc1-c1nc2c(c3c1-c1ccccc1CC3)-c1ccccc1CC2,fluorescence lifetime,in ClCCl,2.75 ns
O=P1(c2ccccc2)C(c2cc(C(F)(F)F)cc(C(F)(F)F)c2)=Cc2c3ccc4cccc5ccc(c6cc(-c7ccccc7)n1c26)c3c45 (stereo not given),fluorescence lifetime,in C1CCCCC1,1.9 ns
same,fluorescence lifetime,in C1CCOC1,3.1 ns
same,fluorescence lifetime,in C1COCCO1,2.6 ns
same,fluorescence lifetime,in CC#N,3.7 ns
same,fluorescence lifetime,in CC(C)=O,3.6 ns
same,fluorescence lifetime,in CO,3.8 ns
same,fluorescence lifetime,in Cc1ccccc1,2.5 ns
same,fluorescence lifetime,in ClC(Cl)Cl,2.4 ns
same,fluorescence lifetime,in ClCCl,2.9 ns
Nc1ccc2c3cccc4cccc(c5cccc1c52)c43,fluorescence lifetime,in C1CCCCC1,5.3 ns
same,fluorescence lifetime,in CC#N,5.5 ns
same,fluorescence lifetime,in CCOC(C)=O,5.1 ns
same,fluorescence lifetime,in CO,5 ns
same,fluorescence lifetime,in CS(C)=O,5.6 ns
same,fluorescence lifetime,in ClCCl,6.8 ns
CN(C)c1ccc(/C=C/c2cc[n+](Cc3cc(C[n+]4ccc(/C=C/c5ccc(N(C)C)cc5)cc4)cc(C[n+]4ccc(/C=C/c5ccc(N(C)C)cc5)cc4)c3)cc2)cc1,fluorescence lifetime,in CCCCCCCCO,0.64 ns
same,fluorescence lifetime,in CCO,0.06 ns
same,fluorescence lifetime,in CO,0.04 ns
same,fluorescence lifetime,in ClC(Cl)Cl,0.64 ns
same,fluorescence lifetime,in ClCCl,0.32 ns
O=C1OC(=O)c2ccc(N(c3ccccc3)c3c4ccccc4cc4ccccc34)c3cccc1c23,fluorescence lifetime,in C1CCOC1,0.64 ns
same,fluorescence lifetime,in CCCCCC,5.4 ns
same,fluorescence lifetime,in c1ccccc1,2.14 ns
COc1ccc(N2c3ccc4ccccc4c3-c3c4ccccc4cc[n+]3[B-]2(c2ccccc2)c2ccccc2)cc1,fluorescence lifetime,in Cc1ccccc1,0.25 ns
CCCC(=O)c1c2c(c(C(=O)CCC)c3c1OC(CC(=O)OC)(C(=O)OC)O3)OCO2,fluorescence lifetime,in CC#N,22.5 ns
same,fluorescence lifetime,in CCCCCC,18.5 ns
same,fluorescence lifetime,in CCO,17.7 ns
same,fluorescence lifetime,in CO,11.9 ns
same,fluorescence lifetime,in ClCCl,25.1 ns
COc1ccc(N(c2ccc(OC)cc2)c2ccc(-c3ccc(-c4ccc(-c5cccs5)c5nsnc45)s3)cc2)cc1,fluorescence lifetime,in ClC(Cl)Cl,6.55 ns
